# Source: patent US7091040B1, “P450/acetaminophen genetically directed enzyme prodrug therapy (GDEPT)” (Innovata PLC, priority 1999, dated 2006)
# Assays:
# [1] = system: SK-OV-3 cells; test: Bystander effect on viability of SK-OV-3 cells co-cultured with H1A2 MZ cells in the presence of acetaminophen, trypan blue exclusion; type: cell-based, human; settings: for viability at 4000 µM: Homo sapiens
# Description: (§1) Tumour cells or V79 MZ cells (non transfected, parental cells) were co-cultured overnight with various mixtures of H1A2 MZ cells (as indicated in the Table), washed with PBS and incubated with 4 mM acetaminophen in PBS for 6 h at 37° C. the cells were then washed once with PBS and maintained for either 24 or 48 h in culture medium appropriate to each cell type, as detailed in the Methods section. At 0, 6, 24 or 48 h the cells were washed in PBS and viability of the mixed cell population determined by trypan blue exclusion. The data shown are mean values±SEM of 4 separate determinations. Statistical significance was determined at each time point by comparing viability measurements in the mixed cell populations with both the viability determined at 0 h and in the absence of H1A2 MZ cells in the mixture 2×2 contingency tables using the 2-tailed Chi-squared test with Yate's correction. Viability was determined in a total of 1500 cells at each time point. Levels of significance are indicated as **p<0.001; ***p<0.0001;
# (§2) For cell viability experiments 200,000 cells per well were plated on 12 well plates (Beckton-Dickenson, Oxford, UK), using the medium and conditions required by the tumour cell line and allowed to adhere overnight. After this the cells were washed with PBS before the addition of acetaminophen in 0.1 ml PBS (concentrations of 0.1–20 mM acetaminophen were dissolved in PBS by sonication) and then maintained at 37° C. At the appropriate time points, cells were removed from the plates by trypsinisation and collected by centrifugation. Cell viability was measured as ability to exclude trypan blue. Cells were counted at ×100 magnification using an Improved Neubauer haemocytometer; all cell counts are the mean of duplicate determinations of five fields from duplicate experiments.
# (§3) V79 MZ Chinese hamster cells were maintained in Dulbecco-Vogt's modified Eagle's Medium (DMEM) supplemented with 10% foetal calf serum 9FCS), 2 mM L-glutamine, penicillin (100 U/ml and streptomycin (100 μg/ml) (all tissue culture reagents were obtained from Gibco BRL, Paisley, UK). H1A2 MZ cells, which are V79 MZ cells transfected with the human CYP1A2 gene, were also maintained in supplemented DMEM with the addition of geneticin at a concentration of 4 mg/ml. SK-OV-3 cells were grown in DMEM supplemented with 15% FCS and 2 mM L-glutamine, without the addition of antibiotics. RPMI-1640 medium with 10% FCS, 2 mM L-glutamine, penicillin (100 U/ml) and streptomycin ([…]) was required by the HCT116 cells. These cell lines were maintained at 37° C. with 100% humidity and 5% CO2. […] At confluence cells were removed from tissue culture flasks by inubation with trypsin-EDTA for 5 min, diluted 1:3–1:6 in fresh medium and seeded onto fresh flasks. The tumour cell lines were obtained from the European Collection of Cell Cultures.
# [2] = system: COS cells; test: Viability of COS cells transiently transfected with mouse CYP1A2 versus non-transfected COS cells, tritiated thymidine incorporation; type: cell-based
# Description: FIG. 1 is a graphical representation of an acetaminophen titration showing the sensitivity of COS cells transiently transfected with a vector incorporating mouse CYP1A2 and non-transfected control COS cells. Cell viability is monitored by tritiated thymidine incorporation;
# FIG. 2 is a cell viability time course of COS cells transiently transfected with mouse CYP1A2 and non-transfected control COS cells over a 24 hr period.
# Acetaminophen concentration is 10 mM. Cell viability is monitored by tritiated thymidine incorporation;
# COS cells are plated at 1.5×10^5 per well in 6 well tissue culture dishes the evening before transfection. […] All tissue culture reagents can be obtained from Gibco BRL, Paisley, UK.
# To the LPA/DNA complex, 200 μl of serum free medium is added to each LPA/DNA sample which is then gently added to the cells over a period of 3–4 seconds. Cells are returned to a 37° C. CO2 incubator for 6 hours. […]
# Transfected COS cells are either exposed to various concentrations of acetaminophen or incubated in the presence of 10 mM acetaminophen and cell viability monitored with time. ^3H-thymidine (Amersham International UK, 100 Ci/mmol, 5 μCi per assay), is added to treated and control cultures and aliquots removed and acid precipitable counts assessed by liquid scintillation using a Beckton Liquid Scintillation Counter.
# [3] = system: HCT116 cells; test: Bystander effect on viability of HCT116 cells co-cultured with H1A2 MZ cells in the presence of acetaminophen, trypan blue exclusion; type: cell-based, human; settings: for viability at 4000 µM: Homo sapiens
# Description: as §1, §2, §3
smiles,measurement,setting,value
CC(=O)Nc1ccc(O)cc1 [acetaminophen],viability at 4000 µM,"[1]; SK-OV-3, 0 h, SK-OV-3 cells + 5% H1A2 MZ cells, 4 mM acetaminophen in PBS, 0 h",98 ± 1%
same,viability at 4000 µM,"[1]; SK-OV-3, 0 h, SK-OV-3 cells + 10% H1A2 MZ cells, 4 mM acetaminophen in PBS, 0 h",98 ± 1%
same,viability at 4000 µM,"[1]; SK-OV-3, 0 h, SK-OV-3 cells + 25% H1A2 MZ cells, 4 mM acetaminophen in PBS, 0 h",97 ± 1%
same,viability at 4000 µM,"[1]; SK-OV-3, 0 h, SK-OV-3 cells + 50% H1A2 MZ cells, 4 mM acetaminophen in PBS, 0 h",98 ± 1%
same,viability at 4000 µM,"[1]; SK-OV-3, 0 h, SK-OV-3 cells, 0% H1A2 MZ cells, 4 mM acetaminophen in PBS, 0 h",97 ± 1%
same,viability at 4000 µM,"[1]; SK-OV-3, 6 h, SK-OV-3 cells + 5% H1A2 MZ cells, 4 mM acetaminophen in PBS, 6 h",55 ± 2%
same,viability at 4000 µM,"[1]; SK-OV-3, 6 h, SK-OV-3 cells + 10% H1A2 MZ cells, 4 mM acetaminophen in PBS, 6 h",43 ± 7%
same,viability at 4000 µM,"[1]; SK-OV-3, 6 h, SK-OV-3 cells + 25% H1A2 MZ cells, 4 mM acetaminophen in PBS, 6 h",22 ± 11%
same,viability at 4000 µM,"[1]; SK-OV-3, 6 h, SK-OV-3 cells + 50% H1A2 MZ cells, 4 mM acetaminophen in PBS, 6 h",16 ± 9%
same,viability at 4000 µM,"[1]; SK-OV-3, 6 h, SK-OV-3 cells, 0% H1A2 MZ cells, 4 mM acetaminophen in PBS, 6 h",98 ± 2%
same,viability at 4000 µM,"[1]; SK-OV-3, SK-OV-3 cells + 5% H1A2 MZ cells, 4 mM acetaminophen 6 h, then 24 h in culture medium",0%
same,viability at 4000 µM,"[1]; SK-OV-3, SK-OV-3 cells + 10% H1A2 MZ cells, 4 mM acetaminophen 6 h, then 24 h in culture medium",0%
same,viability at 4000 µM,"[1]; SK-OV-3, SK-OV-3 cells + 25% H1A2 MZ cells, 4 mM acetaminophen 6 h, then 24 h in culture medium",0%
same,viability at 4000 µM,"[1]; SK-OV-3, SK-OV-3 cells + 50% H1A2 MZ cells, 4 mM acetaminophen 6 h, then 24 h in culture medium",0%
same,viability at 4000 µM,"[1]; SK-OV-3, SK-OV-3 cells, 0% H1A2 MZ cells, 4 mM acetaminophen 6 h, then 24 h in culture medium",96 ± 3%
same,Viability (%),"[1]; SK-OV-3 cells + 5% H1A2 MZ cells, 4 mM acetaminophen 6 h, then 24 h in culture medium",zero
same,susceptibility to cytotoxicity produced by the activation of acetaminophen,"[1]; SK-OV-3 cells mixed with H1A2 MZ cells, 4 mM acetaminophen, 6 h",highly sensitive
same,extent of acetaminophen sensitivity over time (tritiated thymidine incorporation),"[2]; 10 mM acetaminophen, transfected COS cells versus non-transfected control cells over 24 hrs",increases markedly during the first 4–8 hrs
same,sensitivity to acetaminophen (tritiated thymidine incorporation),"[2]; acetaminophen titration, COS cells transfected with CYP1A2 (48 hrs expression) versus non-transfected control COS cells",significant increase in sensitivity
same,Viability (%),"[3]; HCT116 cells + 5% H1A2 MZ cells, 4 mM acetaminophen 6 h, then 24 h in culture medium",zero
same,susceptibility to cytotoxicity produced by the activation of acetaminophen,"[3]; HCT116 cells incubated with 5 and 10% H1A2 MZ cells, 4 mM acetaminophen, 6 h",disproportionate decrease in viability
same,viability at 4000 µM,"[3]; HCT-116, 0 h, HCT116 cells + 5% H1A2 MZ cells, 4 mM acetaminophen in PBS, 0 h",98 ± 1%
same,viability at 4000 µM,"[3]; HCT-116, 0 h, HCT116 cells + 10% H1A2 MZ cells, 4 mM acetaminophen in PBS, 0 h",98 ± 1%
same,viability at 4000 µM,"[3]; HCT-116, 0 h, HCT116 cells + 25% H1A2 MZ cells, 4 mM acetaminophen in PBS, 0 h",97 ± 1%
same,viability at 4000 µM,"[3]; HCT-116, 0 h, HCT116 cells + 50% H1A2 MZ cells, 4 mM acetaminophen in PBS, 0 h",98 ± 1%
same,viability at 4000 µM,"[3]; HCT-116, 0 h, HCT116 cells, 0% H1A2 MZ cells, 4 mM acetaminophen in PBS, 0 h",96 ± 1%
same,viability at 4000 µM,"[3]; HCT-116, 6 h, HCT116 cells + 5% H1A2 MZ cells, 4 mM acetaminophen in PBS, 6 h",69 ± 9%
same,viability at 4000 µM,"[3]; HCT-116, 6 h, HCT116 cells + 10% H1A2 MZ cells, 4 mM acetaminophen in PBS, 6 h",60 ± 6%
same,viability at 4000 µM,"[3]; HCT-116, 6 h, HCT116 cells + 25% H1A2 MZ cells, 4 mM acetaminophen in PBS, 6 h",56 ± 4%
same,viability at 4000 µM,"[3]; HCT-116, 6 h, HCT116 cells + 50% H1A2 MZ cells, 4 mM acetaminophen in PBS, 6 h",42 ± 6%
same,viability at 4000 µM,"[3]; HCT-116, 6 h, HCT116 cells, 0% H1A2 MZ cells, 4 mM acetaminophen in PBS, 6 h",96 ± 5%
same,viability at 4000 µM,"[3]; HCT-116, HCT116 cells + 5% H1A2 MZ cells, 4 mM acetaminophen 6 h, then 24 h in culture medium",0%
same,viability at 4000 µM,"[3]; HCT-116, HCT116 cells + 10% H1A2 MZ cells, 4 mM acetaminophen 6 h, then 24 h in culture medium",0%
same,viability at 4000 µM,"[3]; HCT-116, HCT116 cells + 25% H1A2 MZ cells, 4 mM acetaminophen 6 h, then 24 h in culture medium",0%
same,viability at 4000 µM,"[3]; HCT-116, HCT116 cells + 50% H1A2 MZ cells, 4 mM acetaminophen 6 h, then 24 h in culture medium",0%
same,viability at 4000 µM,"[3]; HCT-116, HCT116 cells, 0% H1A2 MZ cells, 4 mM acetaminophen 6 h, then 24 h in culture medium",96 ± 2%
